Experimental findings from PubChem BioAssay (NCI) are described below.

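Interpolation was linear, between the two tested concentrations surrounding the appropriate level; five concentrations were tested over 48 hours in 96-well plates. At the GI50, growth is halved. TGI denotes the concentration required for complete inhibition of growth.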

For this assay, the system named is MDA-MB-468 breast. The experiment in a line: inhibition of tumour cell growth, NCI panel, 48 h.
Consider `O=C1/C=C/[C@@H](O)[C@@H]2C[C@@H](O)C[C@H]2/C=C/CCC[C@H](CCc2ccccc2)O1`, for which the GI50 was under 0.01 µM and the TGI was 0.0251 µM.

Turning to `C#CC[C@@H]1C[C@]2(C)[C@H]3CC[C@@H]4[C@H]5C(C(=C)C)CC[C@]5(C(=O)NCCCCN)CC[C@@]4(C)[C@]3(C)CC[C@H]2C(C)(C)[C@H]1OC(C)=O` (stereo partly specified), the GI50 is 1.78 µM and the TGI turned out to be 3.59 µM.

On to `CCc1ccc(C(=O)/C=C/C23c4ccccc4C(c4ccccc42)C2C(=O)NC(=O)C23)cc1` (stereo unspecified), for which the GI50 was 1.79 µM and the TGI was found to be 4.13 µM.

In the case of `O=c1ccccc(-c2ccc(Br)cc2)c1O`, the GI50 is 0.257 µM and the TGI turned out to be 2.32 µM.

Take `CNCCCNc1nc2ccccc2c2c(=O)c3cc(F)ccc3sc12`: the GI50 is 1.18 µM and the TGI is 2.6 µM.

In the case of `COc1cc(/C=C2\C(=O)Nc3ccccc32)cc(OC)c1O`, the GI50 was 1.57 µM and the TGI came to 7.67 µM.

For `Cc1cc(Cl)ccc1OCc1nn2c(CCCCc3nnc4sc(COc5ccc(Cl)cc5C)nn34)nnc2s1`, the GI50 is 8.42 µM and the TGI came to 81.2 µM.

Regarding `Nc1c(C(=O)Nc2cccc(C(F)(F)F)c2)sc2nc3c(cc12)C(O)CCC3` (stereo unspecified), the GI50 was 1.69 µM and the TGI was over 62.1 µM.

Turning to `COc1ccc(-c2ccc(-c3ccc(C(=N)N)c(F)c3)s2)cc1`, the GI50 was 0.373 µM and the TGI stood at 1.21 µM.

On to `Cc1cc2cn3c4ccc(O)cc4nc(N)c3c2cc1C`, for which the GI50 was 0.222 µM and the TGI was found to be 0.626 µM.

For the compound `CC(=O)c1c(Nc2cccc(F)c2)[nH]c2c(Cl)cc(Cl)c(Cl)c2c1=O`, the GI50 was 0.317 µM and the TGI was found to be 1.35 µM.

Consider `COc1cc(-c2nn(-c3cccc(NC(=O)Nc4cccc(C(F)(F)F)c4)c3)cc2-c2ccncc2)ccc1Cl`, for which the GI50 was 0.369 µM and the TGI worked out at 2.09 µM.

Regarding `O=C1C=CC2(O)OC/C(=C\c3ccccc3)C(O)=C2C1=O` (stereo unspecified), the GI50 was 1.62 µM and the TGI amounted to 3.23 µM.

For the compound `c1ccc(-c2n(Cc3ccc4ccccc4c3)c3c4ccccc4c4ccccc4c3[n+]2Cc2ccc3ccccc3c2)cc1`, the GI50 was 0.23 µM and the TGI turned out to be 0.845 µM.

As to `Cc1oc2c(C(=O)N/N=C\c3ccc(O)cc3O)c[nH]c2c1C`, the GI50 is 1.96 µM and the TGI turned out to be 18.3 µM.

Turning to `CC1(C)CC[C@]2(C(=O)Nc3ccccn3)CC[C@]3(C)C(=CC[C@@H]4[C@@]5(C)C/C(=C/c6ccncc6)C(=O)C(C)(C)[C@@H]5CC[C@]43C)[C@@H]2C1`, the GI50 is 2.12 µM and the TGI was over 100 µM.

With `COc1ccc(C(=S)N(C)NC(=O)CC(=O)NN(C)C(=S)c2ccc(OC)cc2)cc1`, the GI50 was 48.7 µM and the TGI is over 100 µM.

Turning to `COC(=O)/C=C1/SC(=Nc2ccc(F)cc2)N(CCc2c[nH]c3ccc(O)cc23)C1=O`, the GI50 is 3.03 µM and the TGI worked out at 23.6 µM.

Take `COc1cc(/C=C/C(=O)c2ccccc2)cc(OC)c1OC`: the GI50 is 2.3 µM and the TGI amounted to 8.32 µM.

As to `COc1ccc(C(=O)c2sc3nc4c(cc3c2N)CCCC4)cc1OC`, the GI50 was 2.46 µM and the TGI was 23.6 µM.

As for `CCN(CC)CC(O)CNc1c2ccc(Cl)cc2nc2ccc(OC)cc12` (stereo unspecified), the GI50 was 0.666 µM and the TGI came out at 2.18 µM.

For `Cc1cc(=O)n2nnc3c4ccccc4ccc3n12`, the GI50 was 1.75 µM and the TGI amounted to 4.82 µM.

As for `CC(=O)Oc1cc(C(C)C)c(OCCN(C)C)cc1C`, the GI50 was over 100 µM and the TGI is over 100 µM.

`CC(C)N(CCCNC(=O)Nc1ccc(C(C)(C)C)cc1)C[C@H]1O[C@@H](n2ccc3c(N)ncnc32)[C@H](O)[C@@H]1O`: the GI50 was over 100 µM and the TGI is over 100 µM.

On to `Cc1ccc(C2=NN(c3ccc(S(C)(=O)=O)cc3)C(=O)CC2)cc1`, for which the GI50 was 1.23 µM and the TGI was 4.86 µM.

As to `CC(=O)N1CCC(Nc2ncc3cc(Oc4ccc(F)cc4F)c(=O)n(C)c3n2)CC1`, the GI50 was over 25 µM and the TGI was over 25 µM.

Take `Clc1ccc(Cn2c(CN3CCCC3)nc3ccccc32)cc1`: the GI50 was 13.4 µM and the TGI came to 34.2 µM.

On to `O=C1OCC2=C1C(c1ccc3c(c1)OCO3)c1cc3c(cc1O2)OCO3` (stereo unspecified), for which the GI50 was 0.938 µM and the TGI was over 100 µM.

Turning to `Cc1nc2cc(-c3nn(C(C)C)c4ncnc(N)c34)ccc2o1`, the GI50 was 0.00863 µM and the TGI stood at 0.101 µM.

On to `O=c1ncc(I)cn1C1CC(O)C(CO)O1` (stereo unspecified), for which the GI50 was 935 µM and the TGI was 2980 µM.

Regarding `[2H]c1nc(C)nc([2H])c1-c1cc(NC[C@@H](C)c2cccc3c(C(=O)NC)ccnc23)ncn1`, the GI50 is 56 µM and the TGI was over 100 µM.

For `Cc1ccc(CN(C)c2ccc(CO)c(Cl)c2)cc1`, the GI50 is 0.0389 µM and the TGI was 0.166 µM.

Consider `COc1cc(OC)c(/C=C/c2cc[n+](C)c3ccccc23)c(OC)c1`, for which the GI50 was 0.36 µM and the TGI is 5.01 µM.

For the compound `COc1ccc(/C=C2\COc3ccc(O)c(O)c3C2=O)cc1`, the GI50 was 1.24 µM and the TGI was 3.94 µM.

Turning to `COc1ccc(C2C=C(c3ccc(OC)c(OC)c3)N=C3SC=CN32)c(Br)c1` (stereo unspecified), the GI50 was 1.88 µM and the TGI was found to be 3.91 µM.

Consider `O=C(Nc1ccc(Cl)cc1)Nc1ccc(Cl)c(C(F)(F)F)c1`, for which the GI50 is 1.67 µM and the TGI amounted to 4.8 µM.

In the case of `CCc1cccc2c3c(sc12)C(c1ccc(F)cc1)C(C#N)=C(/N=C/c1ccc(Cl)cc1)O3` (stereo unspecified), the GI50 was 0.248 µM and the TGI came to 0.812 µM.

As for `Cn1c(-c2ccncc2)c(-c2ccc(F)cc2)c2ncccc21`, the GI50 is over 22.7 µM and the TGI was over 25 µM.

On to `COc1cccc2c1O/C(=C\c1ncc([N+](=O)[O-])n1C)C2=O`, for which the GI50 is 1.59 µM and the TGI was determined as 4.3 µM.

Regarding `Nc1nc2cc(O)ccc2n2cc3c(F)cccc3c12`, the GI50 was 2.66 µM and the TGI is over 100 µM.

Consider `c1ccc(CC(Cc2ccccc2)C2=NCCCN2)cc1`, for which the GI50 was 2.92 µM and the TGI is over 100 µM.

`O=C(OCC1OC(n2cc(C(F)(F)F)c(=O)[nH]c2=O)CC1OC(=O)c1ccc([N+](=O)[O-])cc1)c1ccc([N+](=O)[O-])cc1` (stereo unspecified): the GI50 was 28 µM and the TGI was over 100 µM.

`CN(C)CCONC(=O)C12CC3CC(CC(C3)C1)C2`: the GI50 was over 100 µM and the TGI is over 100 µM.

Regarding `CC(C)Oc1ccc(-c2nn([C@@H](C)c3oc4ccc(F)cc4c(=O)c3-c3cccc(F)c3)c3ncnc(N)c23)cc1F`, the GI50 was 37.1 µM and the TGI is over 100 µM.

For `O=C(O)c1ccc(NCc2nc3cc(Cl)c(Cl)cc3[nH]2)cc1`, the GI50 was 62 µM and the TGI is over 100 µM.

For `C[CH2][Pb]([CH2]C)([CH2]C)[O]C(=O)COC`, the GI50 is 0.201 µM and the TGI stood at 0.71 µM.

With `COc1cc(C2CC(c3cccc(Nc4ccncc4)c3)=NN2c2ccccc2)cc(OC)c1OC` (stereo unspecified), the GI50 was 1.49 µM and the TGI came to 2.95 µM.

Consider `Nc1c(C(=O)c2cccc(OC[C@@H](O)CO)c2)cnn1-c1ccc(F)cc1`, for which the GI50 is over 25 µM and the TGI is over 25 µM.
